Read-outs that look alike come from different tables or passages of the source.
Experiments:
TLR8 = molecular target: T1, TLR8 (Homo sapiens, UniProt Q9NR97); assay: In vitro human TLR8 binding reporter assay (HEK-Blue, NF-kB/AP1-inducible SEAP); type: cell-based; conditions: read-out: TLR8 Agonist EC50
T1 construct: human HEK-Blue cells co-expressing a TLR7 or TLR8 gene
T1 sequence (Q9NR97 27-1041): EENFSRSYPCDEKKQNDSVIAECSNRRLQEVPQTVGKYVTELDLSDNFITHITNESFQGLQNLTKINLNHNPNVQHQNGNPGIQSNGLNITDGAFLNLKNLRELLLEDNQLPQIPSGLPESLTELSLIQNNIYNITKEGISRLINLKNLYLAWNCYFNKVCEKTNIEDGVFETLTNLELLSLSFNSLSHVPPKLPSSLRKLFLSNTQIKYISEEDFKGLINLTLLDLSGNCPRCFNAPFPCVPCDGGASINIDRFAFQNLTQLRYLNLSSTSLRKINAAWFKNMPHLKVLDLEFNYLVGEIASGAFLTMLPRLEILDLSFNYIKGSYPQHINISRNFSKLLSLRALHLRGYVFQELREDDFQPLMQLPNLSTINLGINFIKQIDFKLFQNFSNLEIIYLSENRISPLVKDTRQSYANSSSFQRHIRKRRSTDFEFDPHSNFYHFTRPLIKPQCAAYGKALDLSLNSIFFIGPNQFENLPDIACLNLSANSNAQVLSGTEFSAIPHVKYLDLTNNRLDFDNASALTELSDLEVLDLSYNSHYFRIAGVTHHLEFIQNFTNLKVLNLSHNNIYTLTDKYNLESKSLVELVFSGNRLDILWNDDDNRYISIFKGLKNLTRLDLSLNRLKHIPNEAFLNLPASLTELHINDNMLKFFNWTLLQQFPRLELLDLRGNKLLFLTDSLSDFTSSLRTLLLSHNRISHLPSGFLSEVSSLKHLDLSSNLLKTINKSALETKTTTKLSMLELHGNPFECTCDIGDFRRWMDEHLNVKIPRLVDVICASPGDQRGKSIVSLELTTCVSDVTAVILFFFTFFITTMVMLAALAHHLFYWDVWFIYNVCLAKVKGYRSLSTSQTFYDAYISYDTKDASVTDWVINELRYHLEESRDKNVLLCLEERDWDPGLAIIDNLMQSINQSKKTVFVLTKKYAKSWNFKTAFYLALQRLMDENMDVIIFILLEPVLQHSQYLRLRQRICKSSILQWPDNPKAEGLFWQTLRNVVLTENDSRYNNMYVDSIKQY
Procedure, shortened: (§1)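 EC50s come from NF-kB/AP1-driven SEAP secretion in HEK-Blue cells expressing TLR7 or TLR8, measured with Quanti-Blue after an 18 h compound incubation. Maximal response is defined by a 50 μM reference standard.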

THP-1 cells = assay: Measurement of IL-1β production, hTRF protocol (second alternative procedure), THP-1 cells; type: cell-based, human; conditions: read-out: NLRP3 hILIB EC50
Procedure, shortened: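 Compounds, dilution series starting at a final 10 μM, were incubated 2 hours at 37° C with PMA-differentiated THP-1 cells (50 ng/ml overnight; 50,000 cells/well, 2% FBS RPMI). Released IL-1β quantified in supernatant by hTRF kit with 1:40 antibody dilution, 4° C overnight, 665/615 nm ratio.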

TLR7 = molecular target: T2, TLR7 (Homo sapiens, UniProt Q9NYK1); assay: In vitro human TLR7 binding reporter assay (HEK-Blue, NF-kB/AP1-inducible SEAP); type: cell-based; conditions: read-out: TLR7 Agonist EC50
T2 construct: human HEK-Blue cells co-expressing a TLR7 or TLR8 gene
T2 sequence (Q9NYK1 27-1049): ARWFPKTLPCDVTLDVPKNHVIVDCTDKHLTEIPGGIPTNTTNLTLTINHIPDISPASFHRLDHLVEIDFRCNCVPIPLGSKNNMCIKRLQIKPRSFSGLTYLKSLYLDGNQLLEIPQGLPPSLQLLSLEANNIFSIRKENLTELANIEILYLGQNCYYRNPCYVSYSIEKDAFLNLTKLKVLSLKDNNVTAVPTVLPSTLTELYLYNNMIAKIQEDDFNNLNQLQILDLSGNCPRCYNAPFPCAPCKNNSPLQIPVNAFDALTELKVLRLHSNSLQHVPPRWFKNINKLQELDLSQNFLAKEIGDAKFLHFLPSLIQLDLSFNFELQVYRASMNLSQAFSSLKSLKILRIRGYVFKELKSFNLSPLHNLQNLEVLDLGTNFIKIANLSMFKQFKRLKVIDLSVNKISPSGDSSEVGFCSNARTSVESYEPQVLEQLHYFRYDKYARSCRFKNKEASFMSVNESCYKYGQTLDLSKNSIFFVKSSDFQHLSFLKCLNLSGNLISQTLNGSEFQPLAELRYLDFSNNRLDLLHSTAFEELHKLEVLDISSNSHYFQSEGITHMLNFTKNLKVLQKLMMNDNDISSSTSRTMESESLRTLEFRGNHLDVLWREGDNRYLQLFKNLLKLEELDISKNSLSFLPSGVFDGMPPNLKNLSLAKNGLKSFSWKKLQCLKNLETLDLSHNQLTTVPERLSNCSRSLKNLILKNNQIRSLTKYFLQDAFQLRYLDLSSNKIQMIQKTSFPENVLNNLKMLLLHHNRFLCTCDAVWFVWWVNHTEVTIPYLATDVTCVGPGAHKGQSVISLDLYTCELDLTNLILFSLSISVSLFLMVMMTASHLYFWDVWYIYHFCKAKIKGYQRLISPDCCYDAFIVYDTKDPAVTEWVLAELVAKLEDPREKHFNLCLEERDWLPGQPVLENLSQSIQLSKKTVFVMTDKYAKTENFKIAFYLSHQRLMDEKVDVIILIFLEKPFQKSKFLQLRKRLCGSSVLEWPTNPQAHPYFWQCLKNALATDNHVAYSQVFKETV
Procedure, shortened: as §1

[1] = Homo sapiens, THP-1, IL-1β production, human cells
[2] = Homo sapiens, THP-1, IL-1β production, human

Row | EC50 (TLR8; activity range) [µM] | EC50 (THP-1 cells; [1]) [µM] | EC50 (TLR7; activity range) [µM] | EC50 (TLR8; activity range class) [µM] | EC50 (THP-1 cells; [2]) [µM] | EC50 (TLR7; activity range class) [µM] | EC50 (THP-1 cells; IL-1β production, human) [µM] | Structure (SMILES)
1 | > 100 | 18.5 | > 100 | – | – | – | – | CC(Cn1cc2c(n1)c(N)nc1cc(-c3cc[nH]n3)ccc12)C(=O)N1CCOCC1 (stereo not drawn) [Example 539]
2 | – | – | – | > 100 | 0.23 | > 100 | – | Nc1nc2cc(-c3cc[nH]n3)ccc2c2cn(CCNC(=O)c3nccs3)nc12 [Example 97]
3 | – | – | – | > 100 | 8.85 | 20 to 100 | – | CC(C)C(=O)NCCn1cc2c(n1)c(N)nc1cc(-c3cc[nH]n3)ccc12 [Example 34]
4 | > 100 | 3.95 | > 100 | – | – | – | – | CN(C(=O)Cn1cc2c(n1)c(N)nc1cc(-c3cc[nH]n3)ccc12)[C@H]1CCOC1 [Example 549]
5 | – | – | – | > 100 | 0.08 | > 100 | – | N#CCCCn1cc2c(N)nc3cc(-c4cc[nH]n4)ccc3c2n1 [Example 392]
6 | > 100 | 0.51 | > 100 | – | – | – | – | Nc1nc2cc(-c3cc[nH]n3)ccc2c2cn(CC(=O)N3CCCC3)nc12 [Example 528]
7 | – | – | – | 20 to 100 | 1.78 | 20 to 100 | – | CC(C)NCCn1cc2c(n1)c(N)nc1cc(-c3cc[nH]n3)ccc12 [Example 109]
8 | – | – | – | > 100 | 0.62 | > 100 | – | Cc1cnc(C(=O)NCCn2cc3c(n2)c(N)nc2cc(-c4cc[nH]n4)ccc23)cn1 [Example 52]
9 | – | – | – | > 100 | 0.12 | 20 to 100 | – | Nc1nc2cc(-c3cc[nH]n3)ccc2c2cn(CCNC(=O)c3cc(Cl)ccn3)nc12 [Example 61]
10 | – | – | – | 1 to 20 | 0.15 | 20 to 100 | – | Nc1nc2cc(-c3cc[nH]n3)ccc2c2cn(CCNC(=O)c3ccc(F)cn3)nc12 [Example 31, N-{2-[4-amino-7-(1H-pyrazol-3-yl)-2H-pyrazolo[3,4-c]quinolin-2-yl]ethyl}-5-fluoropyridine-2-carboxamide]
11 | – | – | – | > 100 | 0.41 | > 100 | – | C[C@H](CO)Cn1cc2c(N)nc3cc(-c4cc[nH]n4)ccc3c2n1 [Example 308]

More lines, now with the values behind:

Row | Structure (SMILES) | EC50 (TLR8; activity range) [µM] | EC50 (THP-1 cells; [1]) [µM] | EC50 (TLR7; activity range) [µM] | EC50 (TLR8; activity range class) [µM] | EC50 (THP-1 cells; [2]) [µM] | EC50 (TLR7; activity range class) [µM] | EC50 (THP-1 cells; IL-1β production, human) [µM]
12 | Nc1nc2cc(-c3ccn[nH]3)ccc2c2[nH]c(CCNC(=O)c3ccccn3)cc12 [Example 155, N-[2-[4-amino-7-(1H-pyrazol-5-yl)-1H-pyrrolo[3,2-c]quinolin-2-yl]ethyl]pyridine-2-carboxamide] | – | – | – | > 100 | 0.01 | > 100 | –
13 | CN(C)CCn1cc2c(N)nc3cc(-c4ccn[nH]4)ccc3c2n1 [Example 261] | – | – | – | > 100 | 1.29 | > 100 | –
14 | COC1CN(CCn2ncc3c(N)nc4cc(-c5cc[nH]n5)ccc4c32)C1 [Example 435] | > 100 | 3.61 | > 100 | – | – | – | –
15 | Nc1nc2cc(-c3ccn[nH]3)ccc2c2nn(CCNC(=O)c3ccc(F)cn3)nc12 [Example 160] | – | – | – | > 100 | 0.7 | > 100 | –
16 | Nc1nc2cc(-c3cc[nH]n3)ccc2c2nn([C@H]3CC[C@H](O)CC3)cc12 [Example 393] | – | – | – | > 100 | 1.73 | > 100 | –
17 | CCS(=O)(=O)N[C@@H](C)Cn1cc2c(N)nc3cc(-c4cc[nH]n4)ccc3c2n1 [Example 465] | > 100 | 1.9 | > 100 | – | – | – | –
18 | CC(CO)n1cc2c(n1)c(N)nc1cc(-c3ccn[nH]3)ccc12 (stereo not drawn) [Example 453] | > 100 | 0.31 | > 100 | – | – | – | –
19 | CC(C)(O)Cn1cc2c(N)nc3cc(-c4ccn[nH]4)ccc3c2n1 [Example 283] | – | – | – | > 100 | 0.12 | > 100 | –
20 | CC(C(=O)N1CCC1)n1cc2c(N)nc3cc(-c4ccn[nH]4)ccc3c2n1 (stereo not drawn) [Example 576] | > 100 | 1.61 | > 100 | – | – | – | –
21 | CN(C)CCn1nc2c(N)nc3cc(-c4ccn[nH]4)ccc3c2n1 [Example 161] | – | – | – | > 100 | 5.82 | > 100 | –
22 | Nc1nc2cc(-n3cccn3)ccc2c2cn(CCN3CCOCC3)nc12 [Example 13] | – | – | – | > 100 | 1.78 | 20 to 100 | –
23 | CO[C@@H](CO)Cn1cc2c(N)nc3cc(-n4cccn4)ccc3c2n1 [Example 388] | – | – | – | > 100 | 0.31 | > 100 | –
24 | CC(=O)NC(C)Cn1cc2c(N)nc3cc(-c4ccn[nH]4)ccc3c2n1 (single isomer, unassigned) [Example 299] | – | – | – | > 100 | – | > 100 | 2.92
25 | Nc1nc2cc(-c3cc[nH]n3)ccc2c2[nH]c(CCNC(=O)c3ccc(F)cn3)cc12 [Example 417] | > 100 | 0.16 | > 100 | – | – | – | –
26 | Nc1nc2cc(-n3cccn3)ccc2c2cn(C[C@H]3CCC(=O)N3)nc12 [Example 16] | – | – | – | > 100 | 11.3 | 20 to 100 | –
27 | CS(=O)(=O)NCCc1cc2c(N)nc3cc(-c4cc[nH]n4)ccc3c2[nH]1 [Example 481] | > 100 | 0.38 | > 100 | – | – | – | –
28 | CNC(=O)C(C)(C)n1cc2c(N)nc3cc(-c4cc[nH]n4)ccc3c2n1 [Example 513] | > 100 | 1.28 | > 100 | – | – | – | –
29 | CN1CCOC(Cn2ncc3c(N)nc4cc(-c5cc[nH]n5)ccc4c32)C1 (stereo not drawn) [Example 231] | – | – | – | > 100 | 1.21 | > 100 | –
30 | Nc1nc2cc(-c3cc[nH]n3)ccc2c2cn(CCCOc3cccc(F)c3)nc12 [Example 5] | – | – | – | > 100 | 0.35 | > 100 | –
31 | Cc1cc(Nc2cccc(C(=O)NCCn3cc4c(n3)c(N)nc3cc(-c5cc[nH]n5)ccc34)n2)n(C)n1 [Example 78] | – | – | – | > 100 | 4.71 | > 100 | –
32 | CC(C)(Cn1cc2c(N)nc3cc(-c4ccn[nH]4)ccc3c2n1)C(=O)N1CCOCC1 [Example 591] | > 100 | 17 | > 100 | – | – | – | –
33 | N#Cc1ccc(C(=O)NCCn2cc3c(n2)c(N)nc2cc(-c4cc[nH]n4)ccc23)nc1 [Example 64] | – | – | – | > 100 | 0.48 | > 100 | –
34 | CC(=O)N1CCN(CCn2cc3c(N)nc4cc(-c5ccn[nH]5)ccc4c3n2)CC1 [Example 276] | – | – | – | > 100 | 31.7 | > 100 | –

Source: patent publication US12037344B2, “NLRP3 modulators” (INNATE TUMOR IMMUNITY, INC., priority 2018, dated 2024)
